Results taken from US4518611A, “2-Furylbutyrolactone modulation of the immune system in mammals” (priority 1983, dated 1985).
Where “and” joins values, the source holds several entries; their conditions need not be identical. Identical values can stand only once. Entries after “also recorded” stand apart in the source; their conditions may differ. Like-named read-outs stand apart in the source and are kept apart here.

Assays:
spleen lymphocytes [1] = system: spleen lymphocytes
Description: The effect of the compounds of this invention on the immune response to specific antigens involves immunization of mice with specific antigens such as bovine serum albumin (BSA) or keyhole limpet hemocyanin (KLH). Following immunization, it is possible to assess the cell-mediated or humoral (antibody) immune response to these antigens by various methods:
(1) Lymphocyte stimulation assays can be performed using varying concentrations of the specific antigens as mitogens in the lymphocyte stimulation microculture system described above. The only difference is that the incubation period is extended to five days instead of three as for the polyclonal mitogens.
Mice of the C57BL/6 strain are given i.p. injections of either 50, 100, 200 or 400 mg/kg of Cpd. 1 or buffer for ten days (days 1-10). An antigen, keyhole limpet hemocyanin (KLH), is administered intraperitoneally with Freund's Complete Adjuvant (FCA) on days 1, 7, and 13. Blood samples are taken for assay of the antibody response on days 0, 5, 12, and 17. Spleens are removed, lymphocytes isolated and a lymphocyte stimulation assay with PHA, Con-A or KLH antigen as the mitogens is performed on day 17 of the experiment.

spleen lymphocytes [2] = assay: Lymphocyte stimulation assay after in vivo treatment, C57BL/6 mice; conditions: for effect on mitogen response (in words): PHA and Con-A
Protocol: (§1) The purpose of this assay is to challenge lymphocytes in microcultures with one or more polyclonal mitogens at concentrations that will induce mitogenesis within 72 hours of stimulation.
(§2) In the mouse model, spleens are removed from different strains of mice and the spleen cells are teased free and suspended in RPMI-1640 tissue culture medium at a concentration of usually […]. These cells are dispensed at a concentration of 5.0×10^5 cells per microculture well in a 96 well flat bottom 96 well tissue culture plate. All testing of the compounds of this invention or mitogens are done in replicates of 10. The cells are then treated with PHA, Con-A, specific antigens, or buffer only. If in vitro testing is done, varying concentrations of the compounds of this invention or buffer only are added to the cells as well. After treatment with the mitogens and/or compounds of this invention, the cells are incubated for 72 hours. The response of these cells to mitogens and/or the compounds of this invention is assessed using ^14 C-thymidine labeling on the fourth day at a concentration of 0.01 μCi/well. The labeled cells are harvested using a lymphocyte harvestor and placed onto fibrous paper discs. A scintillation cocktail is added to vials containing the discs and the results are obtained using a LKB-liquid scintillation counter (Model 1216/Rackbeta II). The data is expressed as a ratio of the cpm of the mitogen stimulated group to the control (nonmitogen) treated group=lymphocyte stimulation index (LSI).
(§3) The lymphocyte stimulation assay may be performed directly on spleen cells obtained from various strains of mice not treated with the compounds of this invention or on lymphocytes obtained from human […]. […] Alternatively, the mice may be treated in vivo with the compounds of this invention by intraperitoneal multi-dose schedules, followed by sacrifice and harvesting spleen lymphocytes. These cells are then tested for their response to polyclonal mitogens or specific antigens used to immunize the mice. In this system however, no additional compound is added to the in vitro lymphocyte stimulation assay system.
Two strains of mice, C57BL/6 and BDF1 are treated for seven days with i.p. administration of either 25, 50, 100, 200, or 400 mg/kg of Cpd. 1 or just buffer. This is followed on the eighth day by a lymphocyte stimulation assay.
A comparison is made of the lymphocyte response of C57BL/6 mice treated 4 days with i.p. administration of either 50, 100, 200, 400 or 800 mg/kg of Cpd. 1, 50, 100, 200, 400 or 800 mg/kg of ascorbic acid (AA), or just buffer. This is followed on the fifth day by a lymphocyte stimulation assay.
Two strains of mice, C57BL/6 and BALB/c, are treated 4 days with i.p. administration of either 50, 100, 200, or 400 mg/kg of Cpd. 1, or just buffer. This is followed on the fifth day by a lymphocyte stimulation assay.
C57BL/6 mice were treated with four daily i.p. doses of either 50, 100, 200, or 400 mg/kg of Cpd. 1 or just buffer. On the fifth day a lymphocyte stimulation assay was performed.
Mice of the C57BL/6 strain were tested with i.p. administration of either 100, 200, 400 or 600 mg/kg of Cpd. 1 or just buffer. This was followed by removal of spleens and treatment of lymphocytes therein with mitogens PHA and Con-A.
The compound of Example 2, Cpd. 2, was tested in vivo by using C57BL/6 mice and treating them with […] or just buffer for four consecutive days by the i.p. route. On the fifth day a lymphocyte stimulation assay was performed.

spleen lymphocytes [3] = conditions: for Lymphocyte Stimulation Index, Control (no mitogen): 100 mg/kg i.p.; for effect on mitogen response (in words): 100 mg/kg
Protocol: as §1, §2, §3
Three month old mice of the SJL/J strain, which are T-cell deficient, are treated with i.p. administration of 100, 200, or 400 mg/kg of Cpd. 1 or just buffer for four days. This is followed by a lymphocyte stimulation assay.
An in vivo lymphocyte stimulation assay was performed on SJL/J mice of different ages, either 2, 5, or 10 months. The mice received i.p. injections of either 100 mg/kg of Cpd. 1 or just buffer.

[4] = 100 mg/kg i.p., five day administration
[5] = 200 mg/kg i.p., five day administration
[6] = 400 mg/kg i.p., five day administration
[7] = 600 mg/kg i.p., five day administration

Cc1ccc(C2(O)C(=O)OC3C(O)COC32O)o1.Cc1ccc(C2(O)C(=O)OC3C(O)COC32O)o1.O=C1CCC(=O)O1 (stereo not shown) [Cpd. 1, 2-furylbutyrolactone:succinic anhydride]
Lymphocyte Stimulation Index, Con-A (spleen lymphocytes [1]; 50 mg/kg, Day 17): 19.0 | Lymphocyte Stimulation Index (spleen lymphocytes [1]; 50 mg/kg, KLH 0.025 μg/well, Day 17): 0.0386 | Lymphocyte Stimulation Index (spleen lymphocytes [1]; 50 mg/kg, KLH 0.05 μg/well, Day 17): 0.357 | Lymphocyte Stimulation Index (spleen lymphocytes [1]; 50 mg/kg, KLH 0.5 μg/well, Day 17): 0.415 | Lymphocyte Stimulation Index (spleen lymphocytes [1]; 50 mg/kg, KLH 1.0 μg/well, Day 17): 0.536 | Lymphocyte Stimulation Index (spleen lymphocytes [1]; 100 mg/kg, KLH 0.025 μg/well, Day 17): 0.401 | Lymphocyte Stimulation Index (spleen lymphocytes [1]; 100 mg/kg, KLH 0.05 μg/well, Day 17): 0.526 | Lymphocyte Stimulation Index (spleen lymphocytes [1]; 100 mg/kg, KLH 0.5 μg/well, Day 17): 0.734 | Lymphocyte Stimulation Index (spleen lymphocytes [1]; 100 mg/kg, KLH 1.0 μg/well, Day 17): 0.898 | lymphocyte DNA synthesis (in words) (spleen lymphocytes [1]; 200 mg/kg, Con-A or KLH, day 17): statistically significant increase in lymphocyte DNA synthesis | Lymphocyte Stimulation Index (spleen lymphocytes [1]; 200 mg/kg, KLH 0.025 μg/well, Day 17): 3.91 | Lymphocyte Stimulation Index (spleen lymphocytes [1]; 200 mg/kg, KLH 0.05 μg/well, Day 17): 1.02 | Lymphocyte Stimulation Index (spleen lymphocytes [1]; 200 mg/kg, KLH 0.5 μg/well, Day 17): 4.26 | Lymphocyte Stimulation Index (spleen lymphocytes [1]; 200 mg/kg, KLH 1.0 μg/well, Day 17): 7.45 | Lymphocyte Stimulation Index, Control (no mitogen) (spleen lymphocytes [1]; 400 mg/kg, Day 17): 0.840 | Lymphocyte Stimulation Index (spleen lymphocytes [1]; 400 mg/kg, KLH 0.025 μg/well, Day 17): 1.03 | Lymphocyte Stimulation Index (spleen lymphocytes [1]; 400 mg/kg, KLH 0.05 μg/well, Day 17): 0.667 | Lymphocyte Stimulation Index (spleen lymphocytes [1]; 400 mg/kg, KLH 0.5 μg/well, Day 17): 0.232 | Lymphocyte Stimulation Index (spleen lymphocytes [1]; 400 mg/kg, KLH 1.0 μg/well, Day 17): 0.589 | Lymphocyte Stimulation Index, PHA (spleen lymphocytes [2]; 50 mg/kg i.p., 4 days): 13.6 and 17.0 | Lymphocyte Stimulation Index, Con-A (spleen lymphocytes [2]; 50 mg/kg i.p., 7 days): 26.0 | Lymphocyte Stimulation Index, Control (no mitogen) (spleen lymphocytes [2]; 50 mg/kg i.p., 7 days): 1.0 | Lymphocyte Stimulation Index, Con-A (spleen lymphocytes [2]; 100 mg/kg i.p., 7 days): 40.0 | Lymphocyte Stimulation Index, Control (no mitogen) (spleen lymphocytes [2]; 100 mg/kg i.p., 7 days): 1.3 | Lymphocyte Stimulation Index, PHA (spleen lymphocytes [2]; 100 mg/kg i.p., 7 days): 17.7 | Lymphocyte Stimulation Index, Con-A (spleen lymphocytes [2]; [4]): 43.9 | Lymphocyte Stimulation Index, Control (no mitogen) (spleen lymphocytes [2]; [4]): .80 | Lymphocyte Stimulation Index, PHA (spleen lymphocytes [2]; [4]): 51.1 | Lymphocyte Stimulation Index, PHA (spleen lymphocytes [2]; 200 mg/kg i.p., 4 days): 42.8 and 25.2 and 23.2 | Lymphocyte Stimulation Index, Con-A (spleen lymphocytes [2]; 200 mg/kg i.p., 7 days): 34.0 | Lymphocyte Stimulation Index, Control (no mitogen) (spleen lymphocytes [2]; 200 mg/kg i.p., 7 days): 1.0 | Lymphocyte Stimulation Index, PHA (spleen lymphocytes [2]; 200 mg/kg i.p., 7 days): 21.3 | Lymphocyte Stimulation Index, Con-A (spleen lymphocytes [2]; [5]): 36.6 | Lymphocyte Stimulation Index, Control (no mitogen) (spleen lymphocytes [2]; [5]): .62 | Lymphocyte Stimulation Index, PHA (spleen lymphocytes [2]; [5]): 48.2 | Lymphocyte Stimulation Index, Con-A (spleen lymphocytes [2]; 400 mg/kg i.p., 4 days): 40.0 and 30.9 and 26.4 | Lymphocyte Stimulation Index, Con-A (spleen lymphocytes [2]; 400 mg/kg i.p., 7 days): 20.7 | Lymphocyte Stimulation Index, Control (no mitogen) (spleen lymphocytes [2]; 400 mg/kg i.p., 7 days): 1.0 | Lymphocyte Stimulation Index, PHA (spleen lymphocytes [2]; 400 mg/kg i.p., 7 days): 3.2 | Lymphocyte Stimulation Index, Con-A (spleen lymphocytes [2]; [6]): 42.4 | Lymphocyte Stimulation Index, Control (no mitogen) (spleen lymphocytes [2]; [6]): .49 | Lymphocyte Stimulation Index, PHA (spleen lymphocytes [2]; [6]): 44.9 | Lymphocyte Stimulation Index, Con-A (spleen lymphocytes [2]; [7]): 26.5 | Lymphocyte Stimulation Index, Control (no mitogen) (spleen lymphocytes [2]; [7]): 1.7 | Lymphocyte Stimulation Index, PHA (spleen lymphocytes [2]; [7]): 17.6 | evidence of toxicity (spleen lymphocytes [2]; 600 mg/kg, five day administration): no evidence of toxicity | Lymphocyte Stimulation Index, Con-A (spleen lymphocytes [2]; 800 mg/kg i.p., 4 days): .612 | Lymphocyte Stimulation Index, Control (no mitogen) (spleen lymphocytes [2]; 800 mg/kg i.p., 4 days): .31 | Lymphocyte Stimulation Index, PHA (spleen lymphocytes [2]; 800 mg/kg i.p., 4 days): .408 | effect on Con-A response (in words) (spleen lymphocytes [2]; i.p., 4 days, Con-A): doses ranging from 50 to 200 mg/kg have a significant stimulatory effect; also recorded: doses ranging from 400 to 800 mg/kg have a significant anti-proliferative effect | effect on PHA response (in words) (spleen lymphocytes [2]; i.p., 4 days, PHA): doses of 100 and 200 mg/kg of Cpd. 1 tend to stimulate lymphocyte DNA synthesis; also recorded: Doses ranging from 400 to 800 suppress DNA synthesis of spleen lymphocytes; also recorded: a decrease in the response to PHA at the 400 mg/kg dose when compared to the response at the 200 mg/kg dose | effect on mitogen response (in words) (spleen lymphocytes [2]; i.p., 7 days): strong suppression of the PHA response in the C57BL/6 mice; also recorded: a suppression of the Con-A response in C57BL/6 mice when compared to the 200 mg/kg dose; also recorded: at a dose of 200 mg/kg in C57BL/6 mice; also recorded: in the C57BL/6 strain, it is increased at doses of 50, 100 and 200 mg/kg | effect on mitogen response (in words) (spleen lymphocytes [2]; i.p., five day administration): Doses ranging from 100 to 400 mg/kg of Cpd. 1 caused significant stimulation of both the Con-A and PHA treated lymphocytes; also recorded: The high dose, 600 mg/kg, caused less stimulation than the 100 to 400 mg/kg doses and gave levels comparable to controls | effect on mitogen response (in words) (spleen lymphocytes [2]; i.p., four daily doses): Stimulation of the response to polyclonal mitogens at doses of Cpd. 1 from 50-400 mg/kg with a maximum response achieved between doses of 100-200 mg/kg | Lymphocyte Stimulation Index, Control (no mitogen) (spleen lymphocytes [3]; age 2 months): 2.3 | Lymphocyte Stimulation Index, Control (no mitogen) (spleen lymphocytes [3]; age 5 months): 1.9 | Lymphocyte Stimulation Index, Control (no mitogen) (spleen lymphocytes [3]; age 10 months): 2.1 | effect on mitogen response (in words) (spleen lymphocytes [3]; age 2 months): decreased PHA versus increased Con-A response | effect on mitogen response (in words) (spleen lymphocytes [3]; age 5 months): depressed mitogenesis response to both PHA and Con-A | effect on mitogen response (in words) (spleen lymphocytes [3]; age 10 months): significant stimulation of both the PHA and Con-A mitogenic response | Lymphocyte Stimulation Index, Con-A (spleen lymphocytes [3]; 400 mg/kg i.p., four days, three month old): 3.30
